In patent US20190373936A1, “COMPOSITION, METHOD FOR PRODUCING THE SAME AND USE THEREOF” (INFINITUS (CHINA) COMPANY LTD., priority 2018, published 2019):

Columns and labels:
[1] = system: SD rats of combined hyperlipidemia model; assay: Function of facilitating lowering blood lipid: serum lipid indexes by ELISA in combined hyperlipidemia SD rat model; assay type: in vivo
Text: (§1) In the present disclosure, reference was made to the method for testing the function of facilitating lowering blood-lipid in the Technical specification for health care food inspection and evaluation (2012 Updated Edition). SPF grade male SD rats were used as experimental animals. After the adaption period, an animal model of the combined hyperlipidemia was established, and the rats were randomly divided into groups according to TC level. Three dosage groups were continuously administered with the composition provided by the present disclosure by gavage at a dosage of 500 mg/kg·BW (equaled to 5 times of recommendation amount for human), 1000 mg/kg·BW (equaled to 10 times of recommendation amount for human) and 2500 mg/kg·BW (equaled to 25 times of recommendation amount for human), respectively. The blank control group and the model control group were administered with the same volume of distilled water by gavage. Each group was weighed regularly. 30 days after the administration, blood samples were collected without fasting, and levels of TC, TG, HDL-C, LDL-C, ox-HDL, ox-LDL, apo-A1 and apo-β were tested.
Name: SPF grade male SD rats, body weight 170˜220 g
High-fat diet: maintenance diet with 20.0% sucrose, 15% lard, 1.2% cholesterol, 0.2% sodium cholate, appropriate amounts of casein, calcium hydrogen phosphate, rock powders and so on. Except for crude fat, water content, crude protein, crude fat, crude fiber, ash, calcium, phosphate and calcium:phosphate ratio reached the national standard for maintenance diet.
Surgical instruments, centrifuges, centrifuge tubes, electronic balances, punchers, gavage needles, enzyme-labeled instruments, heparin sodium, anesthetic, formalin, refrigerators, vortex mixer, weighing scale, serum total cholesterol (TC) ELISA kit, serum triglyceride (TG) ELISA kit, serum high-density lipoprotein cholesterol (HDL-C) ELISA kit, serum low-density lipoprotein cholesterol (LDL-C) ELISA kit, serum oxidized high-density lipoprotein cholesterol (ox-HDL-C) ELISA kit, serum oxidized low-density lipoprotein cholesterol (ox-LDL-C) ELISA kit, serum apolipoprotein A1 (apo-A1) ELISA kit, and serum apolipoprotein (apo-β) ELISA kit.
There were three dosage groups, two positive control groups, one blank control group and one model control group. In low-dosage group, the test sample was administered at a dosage of 5 times of the recommendation amount for human (500 mg/kg), and in middle-dosage and high-dosage groups, the dosages equaled to 10 times (1000 mg/kg) and 25 times (2500 mg/kg) of the recommendation amount for human. The dosage of the positive control group equaled to 5 times (omega: 150 mg/kg; and atorvastatin calcium: 0.83 mg/kg) of the recommendation amount for human. The blank control group and the model control group were administered with equal amount of distilled water at the same volume by gavage. The duration of the administration of the test sample was generally 30 days.
The compositions provided by the examples 1˜3, the powder formulations provided by the examples 4˜6 were accurately weighed, and an appropriate amount of distilled water was added to prepare the low-, middle- and high-dosages samples. The samples were prepared right before use.
(1) Adaptive period: In a barrier system, the rats were fed on maintenance diet and observed for 5˜7 days.
The rats were randomly divided into 22 groups, 6 per group. One group was fed on the maintenance diet as the blank control group. The other 21 groups were fed on high-fat diet as the model control group. The rats were weighed once a week.
20 days after the model control group was fed on high-fat diet, rats in the blank control group and the model control groups were subjected to blood collection (1˜1.5 mL of blood was collected from the tail vein) without fasting. After blood collection, the serum was quickly separated to a new centrifugal tube, stored at −20° C. before test. […]

[2] = Body weight of SD rats fed high-fat diet during administration of test sample; assay type: in vivo; settings: positive control groups (omega 150 mg/kg; atorvastatin calcium 0.83 mg/kg), 30 days
Text: as §1, with “The blank control group and the model control group were administered with the same volume of distilled water by gavage. Each group was weighed regularly. 30 days after the administration, blood samples were collected without fasting, and levels of TC, TG, HDL-C, LDL-C, ox-HDL, ox-LDL, apo-A1 and apo-β were tested.” left out
After grouping, each dosage group was orally administered with the test sample every day, the two positive groups were respectively orally administered with positive control samples (diluted Omega solution and diluted atorvastatin calcium solution), and the blank control group and the model control group were administered with the same volume of distilled water. […] After blood collection, the serum was quickly separated, and levels of TC, TG, HDL-C, LDL-C, ox-HDL-C, ox-LDL-C, apo-A1 and apo-β in serum were measured.

[3] = positive control groups (omega 150 mg/kg; atorvastatin calcium 0.83 mg/kg), 30 days

Question: Which results are given for `CC(C)c1c(C(=O)Nc2ccccc2)c(-c2ccccc2)c(-c2ccc(F)cc2)n1CC[C@@H](O)C[C@@H](O)CC(=O)[O-].CC(C)c1c(C(=O)Nc2ccccc2)c(-c2ccccc2)c(-c2ccc(F)cc2)n1CC[C@@H](O)C[C@@H](O)CC(=O)[O-].[Ca+2]` [Atorvastatin Calcium, atorvastatin calcium]?
Answer: Effect on Apo-β content in serum of SD rats ([1]; compared with the model control group): decreased; Apo-A1 levels in serum (Mean Value ± Standard Deviation) [1, 3]: 2693.75 ± 435.48 µg/mL; Apo-β levels in serum (Mean Value ± Standard Deviation) [1, 3]: 735.00 ± 264.71 µg/mL; HDL-C levels in serum (Mean Value ± Standard Deviation) [1, 3]: 919.74 ± 150.63 µmol/L; LDL-C levels in serum (Mean Value ± Standard Deviation) [1, 3]: 853.24 ± 235.19 µmol/L; Ox-HDL-C levels in serum (Mean Value ± Standard Deviation) [1, 3]: 35.88 ± 7.30 µg/L; Ox-LDL-C levels in serum (Mean Value ± Standard Deviation) [1, 3]: 45.44 ± 7.40 µg/L; TC levels in serum (Mean Value ± Standard Deviation) [1, 3]: 1117.14 ± 171.07 µmol/L; TG levels in serum (Mean Value ± Standard Deviation) [1, 3]: 189.71 ± 45.83 µmol/L; Final Weight (Mean Value ± Standard Deviation) [2]: 442.00 ± 40.77
